Reference: patent publication US8088806B2 (Achillion Pharmaceuticals, Inc., priority 2005, dated 2012)

tested on: HCV replicon; experiment: Replicon based assay of HCV replication inhibition (NPT ELISA); assay type: cell-based, Hepatitis C virus; details: Hepatitis C virus, Huh-7, 72 h, Table I; Huh-7 HCV replicon-containing cells, three days; read-out: Activity
Outline: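 Huh-7 cells carrying a bicistronic HCV replicon (neo, EMCV-IRES-driven NS3–NS5B) treated overnight after seeding with usually 6 concentrations, 10 to 0.03 micromolar, for three days at 37° C without G418. Replication read as NPT level by captured ELISA; matched-DMSO wells and interferon alpha as controls.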

`CCCCCOc1ccc(Nc2nccs2)cc1C(F)(F)F` [compound 1, N-(3-(trifluoromethyl)-4-(pentyloxy)phenyl)thiazol-2-amine] and `CCCCCOc1ccc(Nc2nc(C(=O)Nc3cccnc3)cs2)cc1C(F)(F)F` [compound 14, 2-(3-(trifluoromethyl)-4-(pentyloxy)phenylamino)-N-(pyridin-3-yl)thiazole-4-carboxamide] cannot be ordered by EC50: less than 1 µM for the first, less than 1 µM for the second.

First: CCCCCc1ccc(Nc2nc(-c3cccc(F)c3)cs2)cc1 [compound 183, 4-(3-fluorophenyl)-N-(4-pentylphenyl)thiazol-2-amine]
Second: CCCc1ccc(Nc2nc(-c3cccnc3)cs2)cc1 [compound 110, N-(4-propylphenyl)-4-(pyridin-3-yl)thiazol-2-amine]
The EC50 of the first is lower: less than 1 µM for the first, greater than 10 µM for the second. The first is the more potent here.

First: Fc1cccc(-c2csc(Nc3cccc(Oc4ccccc4)c3)n2)c1 [compound 188, 4-(3-fluorophenyl)-N-(3-phenoxyphenyl)thiazol-2-amine]
Second: COc1cccc2sc(Nc3nc(-c4cccnc4)cs3)nc12 [compound 207, 4-methoxy-N-(4-(pyridin-3-yl)thiazol-2-yl)benzo[d]thiazol-2-amine]
The EC50 of the first is lower: less than 1 µM for the first, 1 to 10 µM for the second.

`CCCCCOc1ccc(N(C)c2nc(C(=O)Nc3cccnc3)cs2)cc1C(F)(F)F` [compound 162, 2-(N-(3-(trifluoromethyl)-4-(pentyloxy)phenyl)-N-methylamino)-N-(pyridin-3-yl)thiazole-4-carboxamide] and `CCCCCOc1ccc(N(C(C)=O)c2nc(C(=O)Nc3cccnc3)cs2)cc1C(F)(F)F` [compound 173, 2-(N-(3-(trifluoromethyl)-4-(pentyloxy)phenyl)acetamido)-N-(pyridin-3-yl)thiazole-4-carboxamide] cannot be ordered by EC50: greater than 10 µM for the first, greater than 10 µM for the second.

First: CCCCCOc1ccc(Nc2nc(C(=O)Nc3ccc(Cl)c(Cl)c3)cs2)cc1C(F)(F)F [compound 128, 2-(3-(trifluoromethyl)-4-(pentyloxy)phenylamino)-N-(3,4-dichlorophenyl)thiazole-4-carboxamide]
Second: CCCCCOc1ccc(Nc2nc(-c3ccc(C(=O)OC)cn3)cs2)cc1C(F)(F)F [compound 211, methyl 6-(2-(3-(trifluoromethyl)-4-(pentyloxy)phenylamino)thiazol-4-yl)pyridine-3-carboxylate]
The EC50 of the first is higher: 1 to 10 µM for the first, less than 1 µM for the second.

same assay, conditions: Hepatitis C virus, Huh-7, 72 h, Table III; Huh-7 HCV replicon-containing cells, three days; read-out: Activity

`CCCCCCCCOc1ccc(Nc2nc(-c3cnc(OC)nc3)cs2)cc1C(F)(F)F` [compound 662, N-(3-(trifluoromethyl)-4-(octyloxy)phenyl)-4-(2-methoxypyrimidin-5-yl)thiazol-2-amine] and `CCCCCCCCOc1ccc(Nc2nc(-c3ccc(NC)nc3)cs2)cc1C(F)(F)F` [compound 536, 5-(2-(3-(trifluoromethyl)-4-(octyloxy)phenylamino)thiazol-4-yl)-N-methylpyridin-2-amine] cannot be ordered by EC50: less than 1 µM for the first, less than 1 µM for the second.

Compared with `CCCCCCCCOc1ccc(Nc2nc(-c3ccc4c(c3)SCC(=O)N4)cs2)cc1C(F)(F)F` [compound 669, 7-(2-(3-(trifluoromethyl)-4-(octyloxy)phenylamino)thiazol-4-yl)-2H-benzo[b][1,4]thiazin-3(4H)-one], `CCCCCCCCOc1ccc(Nc2nc(Cc3ccc(F)c(F)c3)cs2)cc1C(F)(F)F` [compound 609, 4-(3,4-difluorobenzyl)-N-(3-(trifluoromethyl)-4-(octyloxy)phenyl)thiazol-2-amine] is higher in EC50: less than 1 µM for the first, 1 to 10 µM for the second. The first is the more potent here.

`CCCCCOc1ccc(Nc2nc(-c3cncc(C#N)c3)cs2)cc1C(F)(F)F` [compound 520, 5-(2-(3-(trifluoromethyl)-4-(pentyloxy)phenylamino)thiazol-4-yl)pyridine-3-carbonitrile] and `CCCCCCCc1ccc(Nc2nc(-c3ccc(O)c(O)c3)cs2)cc1` [compound 559, 4-(2-(4-heptylphenylamino)thiazol-4-yl)benzene-1,2-diol] cannot be ordered by EC50: less than 1 µM for the first, less than 1 µM for the second.

`FC(F)(F)c1cc(Nc2nc(-c3cccnc3)cs2)ccc1N1CCC2CCCCC2C1` (stereo not drawn) [compound 698, N-(3-(trifluoromethyl)-4-(octahydroisoquinolin-2(1H)-yl)phenyl)-4-(pyridin-3-yl)thiazol-2-amine] and `CCCCCCCCc1ccc(Nc2nc(-c3sc(-c4cnccn4)nc3C)cs2)cc1` [compound 554, 4-(4-methyl-2-(pyrazin-2-yl)thiazol-5-yl)-N-(4-octylphenyl)thiazol-2-amine] cannot be ordered by EC50: less than 1 µM for the first, less than 1 µM for the second.

`CCCCCCCCN(C)c1ccc(Nc2nc(Cc3ccc(OC)cc3)cs2)cc1` [compound 644, N^1-(4-(4-methoxybenzyl)thiazol-2-yl)-N^4-methyl-N^4-octylbenzene-1,4-diamine] was tested, and the EC50 was greater than 10 µM.

same assay, conditions: Hepatitis C virus, replicon based assay of HCV replication inhibition; Table II; read-out: Activity

Compared with `CCCCCCCCOc1ccc(Nc2nc(-c3cccnc3)cs2)cn1` [compound 469, 6-(octyloxy)-N-0(4-(pyridin-3-yl)thiazol-2-yl)pyridin-3-amine], `CCCCCCCCOc1ccc(Nc2nc(-c3ccc(NC)nc3)cs2)cc1` [compound 463, 5-(2-(4-(octyloxy)phenylamino)thia-zol-4-yl)-N-meethylpyridin-2-amine] is lower in EC50: 1 to 10 µM for the first, less than 1 µM for the second.

`CCCCCCCOc1ccc(Nc2nc(-c3cccs3)cs2)cc1` [compound 359, N-(4-(heptyloxy)phenyl)-4-(thiophen-2-yl)thiazol-2-amine] and `CCCCCCCOc1ccc(Nc2nc(-c3ccccc3O)cs2)cc1` [compound 372, 2-(2-(4-(heptyloxy)phenylamino)thia-zol-4-yl)phenol] cannot be ordered by EC50: less than 1 µM for the first, less than 1 µM for the second.

Compared with `CCCCCOc1ccc(Nc2nc(CN3CCC(O)C3)cs2)cc1F` (stereo not drawn) [compound 288, 1-((2-(3-fluoro-4-(pentyloxy)phenylamino)thia-zzol-4-yl)methyl)pyrrolidin-3-ol], `CCCCCOc1ccc(Nc2nc(CN3CCCCC3CO)cs2)cc1F` (stereo not drawn) [compound 286, (1-((2-(3-fluoro-4-(pentyloxy)phenylamino)thia-zol-4-yl)methyl)piperidin-2-yl)methanol] is higher in EC50: less than 1 µM for the first, 1 to 10 µM for the second.

First: COc1ccc(Cl)cc1Nc1nc(-c2cccnc2)cs1 [compound 428, N-(5-chloro-2-methoxyphenyl)-4-(pyridin-3-yl)thiazol-2-amine]
Second: CCCCCOc1ccc(Nc2nc(-c3csc(-c4cccnc4)n3)cs2)cc1C(F)(F)F [compound 298, N-(4-(pentyloxy)-3-(trifluoromethyl)phenyl)-4-(2-(pyridin-3-yl)thiazol-4-yl)thiazol-2-amine]
The EC50 of the first is higher: 1 to 10 µM for the first, less than 1 µM for the second.

Going from `CCCCCOc1ccc(Nc2nc(-c3ccccn3)cs2)cc1F` [compound 418, N-(3-fluoro-4-(pentyloxy)phenyl)-4-(pyridin-2-yl)thiazol-2-amine] to `CCCCCOc1ccc(Nc2nc(Cc3ccccc3)cs2)cc1C(F)(F)F` [compound 514, 4-benzyl-N-(3-(trifluoromethyl)-4-(pentyloxy)phenyl)thiazol-2-amine], the EC50 rises from less than 1 µM to greater than 10 µM.

Compared with `CCCCCOc1ccc(Nc2nc(CN3CCCCC3)cs2)cc1C(F)(F)F` [compound 230, N-(4-(pentyloxy)-3-(trifluoromethyl)phenyl)-4-(piperidin-1-ylmethyl)thiazol-2-amine], `Fc1ccc(-c2csc(Nc3ccc(OC4CCCC4)c(C(F)(F)F)c3)n2)cc1F` [compound 257, N-(4-(cyclopentyloxy)-3-(trifluoromethyl)phenyl)-4-(3,4-difluorophenyl)thiazol-2-amine] is lower in EC50: 1 to 10 µM for the first, less than 1 µM for the second. The second is the more potent here.

Compared with `CCCCCCCc1ccc(C(=O)Nc2nc(-c3ccc(Cl)cc3)cs2)cc1` [compound 451, N-(4-(4-chlorophenyl)thiazol-2-yl)-4-heptylbenzamide], `CCCCCCCCOc1ccc(Nc2nc(-c3ccc(F)cc3F)cs2)cc1` [compound 330, 4-(2,4-difluorophenyl)-N-(4-(octyloxy)phenyl)thiazol-2-amine] is higher in EC50: less than 1 µM for the first, 1 to 10 µM for the second.

In the case of `O=C1COc2ccc(-c3csc(Nc4ccc(OC5CCCC5)c(C(F)(F)F)c4)n3)cc2N1` [compound 251, 6-(2-(4-(cyclopentyloxy)-3-(trifluoromethyl)phenyl-amino)thiazol-4-yl)-2H-benzo[b][1,4]oxazin-3(4H)-one], the EC50 is reported as less than 1 µM.

same assay, conditions: Hepatitis C virus, replicon based assay of HCV replication inhibition; Table IV; read-out: Activity

Compared with `COc1ccc(Nc2nc(-c3cccnc3)cs2)cc1` [compound 886, N-(4-methoxyphenyl)-4-(pyridin-3-yl)thiazol-2-amine], `Cc1ccc(Nc2nc(-c3cccnc3)cs2)cc1C(F)(F)F` [compound 879, N-(3-(trifluoromethyl)-4-methylphenyl)-4-(pyridin-3-yl)thiazol-2-amine] is lower in EC50: greater than 10 µM for the first, less than 1 µM for the second.

`CCCCCCCCOc1ccc(Nc2nc(C#N)c(N)s2)cc1C(F)(F)F` [compound 859, 2-(3-(trifluoromethyl)-4-(octyloxy)phenylamino)-5-aminothiazole-4-carbonitrile] and `Cc1sc(Nc2ccc(OCCCC3CCCC3)c(C(F)(F)F)c2)nc1-c1cccnc1` [compound 837, N-(4-(3-cyclopentylpropoxy)-3-(trifluoromethyl)phenyl)-5-methyl-4-(pyridin-3-yl)thiazol-2-amine] cannot be ordered by EC50: less than 1 µM for the first, less than 1 µM for the second.

`Cc1sc(Nc2ccc(OCCCc3ccccc3)c(F)c2)nc1-c1cccnc1` [compound 855, N-(4-(3-phenylpropoxy)-3-fluorophenyl)-5-methyl-4-(pyridin-3-yl)thiazol-2-amine] and `Cn1nc(-c2ccccc2)cc1Nc1nc(-c2cccnc2)cs1` [compound 748, 1-methyl-3-phenyl-N-(4-(pyridin-3-yl)thiazol-2-yl)-1H-pyrazol-5-amine] cannot be ordered by EC50: greater than 10 µM for the first, greater than 10 µM for the second.

`Brc1ccc(Nc2nc(-c3cccnc3)cs2)nc1` [compound 739, 5-bromo-N-(4-(pyridin-3-yl)thiazol-2-yl)pyridin-2-amine] showed an EC50 greater than 10 µM.

same assay, conditions: replicon based assay of HCV replication inhibition; Table II; read-out: Activity

`CCCCCCCCOc1ccc(Nc2nc(-c3cccnc3)cs2)cn1` [compound 472, 6-(octyloxy)-N-(4-(pyridin-3-yl)thiazol-2-yl)pyridin-3-amine] showed an EC50 of less than 1 µM.
